Data published in patent US6613718B2, “Aryl ether derivatives and processes for their preparation and herbicidal and desiccant compositions containing them” (Ishihara Sangyo Kaisha, Ltd., priority 2001, dated 2003).

What was measured:
Type in all cases: in vivo
[1] = test system: soybean (Glycine max L., var. Pella 86, SOY); experiment: Post-emerge greenhouse screening, crop safety (phytotoxicity rating); details: 14 days after application
Outline: (§1)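 Ratings taken 14 days after treatment on a 0–100 scale, 100 meaning complete plant death. Post-emerge: 2-3 leaf plants, 0.25% v/v surfactant added; pre-emerge: seeds sown a day ahead, soil surface-watered after spraying. Rates 15–1000 g ai/ha in acetone, 187 l/ha.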

[2] = test system: upland rice (Oryza sp., var.Tebonnet, RICE); experiment: as above; details: 14 days after application
Outline: as §1

[3] = test system: johnsongrass (Sorghum halepense, SORHA); experiment: Post-emerge greenhouse herbicide activity screening, phytotoxicity rating; details: 14 days after application
Outline: as §1

[4] = test system: green foxtail (Setaria viridis, SETVI); experiment: as above
Outline: as §1

[5] = test system: sicklepod (Cassia obtusifolia, CASOB); experiment: as above
Outline: as §1

[6] = test system: redroot pigweed (Amaranthus retroflexus, AMARE); experiment: as above
Outline: as §1

[7] = test system: velvetleaf (Abutilon theophrasti, ABUTH); experiment: as above; details: 14 days after application
Outline: as §1

[8] = test system: common ragweed (Ambrosia artemisiifolia L., AMBEL); experiment: as above
Outline: as §1

[9] = test system: large crabgrass (Digitaria sanguinalis, DIGSA); experiment: as above; details: 14 days after application
Outline: as §1

[10] = test system: barnyardgrass (Echinochloa crus-galli, ECHCG); experiment: as above; details: 14 days after application
Outline: as §1

[11] = test system: ivyleaf morningglory (Ipomoea hederacea, IPOHE); experiment: as above; details: 14 days after application
Outline: as §1

[12] = test system: lambsquarters (Chenopodium album, CHEAL); experiment: as above
Outline: as §1

[13] = test system: soybean (Glycine max L., var. Pella 86, SOY); experiment: Pre-emerge greenhouse screening, crop safety (phytotoxicity rating); details: 14 days after application
Outline: as §1

[14] = test system: upland rice (Oryza sp., var.Tebonnet, RICE); experiment: as above; details: 14 days after application
Outline: as §1

[15] = test system: field corn (Zea mays L., var. Dekalb 535, CORN); experiment: as above; details: 14 days after application
Outline: as §1

[16] = test system: field corn (Zea mays L., var. Dekalb 535, CORN); experiment: Post-emerge greenhouse screening, crop safety / corn selectivity (phytotoxicity rating); details: for CORN crop damage, phytotoxicity rating (0-100 scale): 14 days after application
Outline: as §1

[17] = test system: johnsongrass (Sorghum halepense, SORHA); experiment: Pre-emerge greenhouse herbicide activity screening, phytotoxicity rating; details: 14 days after application
Outline: as §1

[18] = test system: green foxtail (Setaria viridis, SETVI); experiment: as above; details: 14 days after application
Outline: as §1

[19] = test system: sicklepod (Cassia obtusifolia, CASOB); experiment: as above; details: 14 days after application
Outline: as §1

[20] = test system: redroot pigweed (Amaranthus retroflexus, AMARE); experiment: as above; details: 14 days after application
Outline: as §1

[21] = test system: velvetleaf (Abutilon theophrasti, ABUTH); experiment: as above; details: 14 days after application
Outline: as §1

[22] = test system: common ragweed (Ambrosia artemisiifolia L., AMBEL); experiment: as above; details: 14 days after application
Outline: as §1

[23] = test system: large crabgrass (Digitaria sanguinalis, DIGSA); experiment: as above; details: 14 days after application
Outline: as §1

[24] = test system: barnyardgrass (Echinochloa crus-galli, ECHCG); experiment: as above; details: 14 days after application
Outline: as §1

[25] = test system: ivyleaf morningglory (Ipomoea hederacea, IPOHE); experiment: as above; details: 14 days after application
Outline: as §1

[26] = test system: lambsquarters (Chenopodium album, CHEAL); experiment: as above; details: 14 days after application
Outline: as §1

[27] = 125 g ai/ha, 14 days after application
[28] = 250 g ai/ha, 14 days after application

Cn1c(=S)n(C)c(=O)n(-c2cc(Oc3ccccc3[N+](=O)[O-])c(Cl)cc2F)c1=O [Compound 2-17]
100: AMARE phytotoxicity rating (0-100 scale) ([20]; 250 g ai/ha) | CHEAL phytotoxicity rating (0-100 scale) ([26]; 125 g ai/ha) | CHEAL phytotoxicity rating (0-100 scale) ([26]; 250 g ai/ha)
3: CORN selectivity, phytotoxicity rating (0-100 scale) ([16]; 62.5 g ai/ha)
8: CORN crop damage, phytotoxicity rating (0-100 scale) ([16]; 250 g ai/ha)
99: AMARE phytotoxicity rating (0-100 scale) ([20]; 125 g ai/ha)
90: CHEAL phytotoxicity rating (0-100 scale) ([12]; 31.3 g ai/ha) | CHEAL phytotoxicity rating (0-100 scale) ([12]; 62.5 g ai/ha)
80: AMARE phytotoxicity rating (0-100 scale) ([6]; 31.3 g ai/ha) | AMARE phytotoxicity rating (0-100 scale) ([6]; 62.5 g ai/ha) | AMARE phytotoxicity rating (0-100 scale) [6, 27] | AMARE phytotoxicity rating (0-100 scale) [6, 28] | DIGSA phytotoxicity rating (0-100 scale) ([23]; 250 g ai/ha)
98: ABUTH phytotoxicity rating (0-100 scale) ([7]; 250 g ai/ha) | SETVI phytotoxicity rating (0-100 scale) ([18]; 250 g ai/ha)
85: SETVI phytotoxicity rating (0-100 scale) ([18]; 125 g ai/ha)
50: AMBEL phytotoxicity rating (0-100 scale) ([8]; 31.3 g ai/ha) | AMBEL phytotoxicity rating (0-100 scale) ([8]; 62.5 g ai/ha) | SORHA phytotoxicity rating (0-100 scale) ([17]; 250 g ai/ha) | IPOHE phytotoxicity rating (0-100 scale) ([25]; 250 g ai/ha)
0: SOY crop damage, phytotoxicity rating (0-100 scale) ([1]; 125 g ai/ha) | RICE crop damage, phytotoxicity rating (0-100 scale) ([2]; 125 g ai/ha) | RICE crop damage, phytotoxicity rating (0-100 scale) ([2]; 250 g ai/ha) | SORHA phytotoxicity rating (0-100 scale) ([3]; 125 g ai/ha) | SORHA phytotoxicity rating (0-100 scale) ([3]; 250 g ai/ha) | SETVI phytotoxicity rating (0-100 scale) ([4]; 31.3 g ai/ha) | SETVI phytotoxicity rating (0-100 scale) ([4]; 62.5 g ai/ha) | SETVI phytotoxicity rating (0-100 scale) [4, 27] | SETVI phytotoxicity rating (0-100 scale) [4, 28] | CASOB phytotoxicity rating (0-100 scale) ([5]; 31.3 g ai/ha) | CASOB phytotoxicity rating (0-100 scale) ([5]; 62.5 g ai/ha) | DIGSA phytotoxicity rating (0-100 scale) ([9]; 125 g ai/ha) | ECHCG phytotoxicity rating (0-100 scale) ([10]; 125 g ai/ha) | IPOHE phytotoxicity rating (0-100 scale) ([11]; 125 g ai/ha) | IPOHE phytotoxicity rating (0-100 scale) ([11]; 250 g ai/ha) | SOY crop damage, phytotoxicity rating (0-100 scale) ([13]; 125 g ai/ha) | RICE crop damage, phytotoxicity rating (0-100 scale) ([14]; 125 g ai/ha) | RICE crop damage, phytotoxicity rating (0-100 scale) ([14]; 250 g ai/ha) | CORN crop damage, phytotoxicity rating (0-100 scale) ([15]; 125 g ai/ha) | CORN crop damage, phytotoxicity rating (0-100 scale) ([15]; 250 g ai/ha) | CASOB phytotoxicity rating (0-100 scale) ([19]; 125 g ai/ha) | AMBEL phytotoxicity rating (0-100 scale) ([22]; 125 g ai/ha) | AMBEL phytotoxicity rating (0-100 scale) ([22]; 250 g ai/ha)
60: AMBEL phytotoxicity rating (0-100 scale) [8, 27] | ABUTH phytotoxicity rating (0-100 scale) ([21]; 125 g ai/ha) | DIGSA phytotoxicity rating (0-100 scale) ([23]; 125 g ai/ha)
5: CORN crop damage, phytotoxicity rating (0-100 scale) ([16]; 125 g ai/ha)
65: CASOB phytotoxicity rating (0-100 scale) [5, 28]
30: CASOB phytotoxicity rating (0-100 scale) ([19]; 250 g ai/ha) | ECHCG phytotoxicity rating (0-100 scale) ([24]; 125 g ai/ha) | ECHCG phytotoxicity rating (0-100 scale) ([24]; 250 g ai/ha) | IPOHE phytotoxicity rating (0-100 scale) ([25]; 125 g ai/ha)
75: AMBEL phytotoxicity rating (0-100 scale) [8, 28]
10: SOY crop damage, phytotoxicity rating (0-100 scale) ([13]; 250 g ai/ha)
70: ABUTH phytotoxicity rating (0-100 scale) ([21]; 250 g ai/ha)
25: SOY crop damage, phytotoxicity rating (0-100 scale) ([1]; 250 g ai/ha) | CASOB phytotoxicity rating (0-100 scale) [5, 27] | ECHCG phytotoxicity rating (0-100 scale) ([10]; 250 g ai/ha) | SORHA phytotoxicity rating (0-100 scale) ([17]; 125 g ai/ha)
35: DIGSA phytotoxicity rating (0-100 scale) ([9]; 250 g ai/ha)
95: ABUTH phytotoxicity rating (0-100 scale) ([7]; 125 g ai/ha) | CHEAL phytotoxicity rating (0-100 scale) [12, 27] | CHEAL phytotoxicity rating (0-100 scale) [12, 28]

COc1ccc(Oc2cc(-n3c(=O)cc(C(F)(F)F)n(C)c3=S)c(F)cc2C#N)cc1 [Compound 1-72]
90: AMARE phytotoxicity rating (0-100 scale) [6, 28] | ABUTH phytotoxicity rating (0-100 scale) ([7]; 250 g ai/ha)
60: IPOHE phytotoxicity rating (0-100 scale) ([11]; 125 g ai/ha) | IPOHE phytotoxicity rating (0-100 scale) ([11]; 250 g ai/ha) | SORHA phytotoxicity rating (0-100 scale) ([17]; 125 g ai/ha) | SORHA phytotoxicity rating (0-100 scale) ([17]; 250 g ai/ha)
8: CORN crop damage, phytotoxicity rating (0-100 scale) ([15]; 250 g ai/ha)
99: DIGSA phytotoxicity rating (0-100 scale) ([23]; 250 g ai/ha)
0: SOY crop damage, phytotoxicity rating (0-100 scale) ([1]; 125 g ai/ha) | SOY crop damage, phytotoxicity rating (0-100 scale) ([1]; 250 g ai/ha) | RICE crop damage, phytotoxicity rating (0-100 scale) ([2]; 125 g ai/ha) | RICE crop damage, phytotoxicity rating (0-100 scale) ([2]; 250 g ai/ha) | SORHA phytotoxicity rating (0-100 scale) ([3]; 125 g ai/ha) | SORHA phytotoxicity rating (0-100 scale) ([3]; 250 g ai/ha) | SETVI phytotoxicity rating (0-100 scale) [4, 27] | SETVI phytotoxicity rating (0-100 scale) [4, 28] | CASOB phytotoxicity rating (0-100 scale) [5, 27] | CASOB phytotoxicity rating (0-100 scale) [5, 28] | AMBEL phytotoxicity rating (0-100 scale) [8, 27] | AMBEL phytotoxicity rating (0-100 scale) [8, 28] | DIGSA phytotoxicity rating (0-100 scale) ([9]; 125 g ai/ha) | DIGSA phytotoxicity rating (0-100 scale) ([9]; 250 g ai/ha) | ECHCG phytotoxicity rating (0-100 scale) ([10]; 125 g ai/ha) | ECHCG phytotoxicity rating (0-100 scale) ([10]; 250 g ai/ha) | SOY crop damage, phytotoxicity rating (0-100 scale) ([13]; 125 g ai/ha) | RICE crop damage, phytotoxicity rating (0-100 scale) ([14]; 125 g ai/ha) | RICE crop damage, phytotoxicity rating (0-100 scale) ([14]; 250 g ai/ha) | CORN crop damage, phytotoxicity rating (0-100 scale) ([16]; 125 g ai/ha) | CORN crop damage, phytotoxicity rating (0-100 scale) ([16]; 250 g ai/ha)
100: CHEAL phytotoxicity rating (0-100 scale) [12, 27] | CHEAL phytotoxicity rating (0-100 scale) [12, 28] | CASOB phytotoxicity rating (0-100 scale) ([19]; 250 g ai/ha) | AMARE phytotoxicity rating (0-100 scale) ([20]; 125 g ai/ha) | AMARE phytotoxicity rating (0-100 scale) ([20]; 250 g ai/ha) | ABUTH phytotoxicity rating (0-100 scale) ([21]; 125 g ai/ha) | ABUTH phytotoxicity rating (0-100 scale) ([21]; 250 g ai/ha) | IPOHE phytotoxicity rating (0-100 scale) ([25]; 250 g ai/ha) | CHEAL phytotoxicity rating (0-100 scale) ([26]; 125 g ai/ha) | CHEAL phytotoxicity rating (0-100 scale) ([26]; 250 g ai/ha)
40: SOY crop damage, phytotoxicity rating (0-100 scale) ([13]; 250 g ai/ha)
5: CORN crop damage, phytotoxicity rating (0-100 scale) ([15]; 125 g ai/ha)
20: SETVI phytotoxicity rating (0-100 scale) ([18]; 125 g ai/ha) | ECHCG phytotoxicity rating (0-100 scale) ([24]; 125 g ai/ha)
65: CASOB phytotoxicity rating (0-100 scale) ([19]; 125 g ai/ha)
80: AMARE phytotoxicity rating (0-100 scale) [6, 27] | ABUTH phytotoxicity rating (0-100 scale) ([7]; 125 g ai/ha) | SETVI phytotoxicity rating (0-100 scale) ([18]; 250 g ai/ha) | ECHCG phytotoxicity rating (0-100 scale) ([24]; 250 g ai/ha)
95: AMBEL phytotoxicity rating (0-100 scale) ([22]; 125 g ai/ha) | AMBEL phytotoxicity rating (0-100 scale) ([22]; 250 g ai/ha) | DIGSA phytotoxicity rating (0-100 scale) ([23]; 125 g ai/ha) | IPOHE phytotoxicity rating (0-100 scale) ([25]; 125 g ai/ha)
